Converted amounts (≈) assume the structure as drawn.

These results are taken from PubChem BioAssay AID1996.

The conditions of this data set: buffer; pH 7.4; 200.0 µM.
The compound `CN1CCCN(C(=O)c2cccc(Cl)c2)CC1` had a kinetic solubility of over 37.9 µg/mL.
Compound `O=C1C(Cl)=C(N2CCCC2)C(=O)N1c1ccccc1F` showed a kinetic solubility of over 44.2 µg/mL.
In turn, `Cc1ccccc1NC1(C#N)CCCCC1` showed a kinetic solubility of 3.6 µg/mL (≈ 16.8 µM).
For the compound `O=[N+]([O-])c1cccc(CN2CCN(c3ncccn3)CC2)c1`, the solubility (kinetic) turned out to be 32.2 µg/mL (≈ 108 µM).
To `Nc1nc(Cl)nc2ncn(Cc3ccccc3)c12` belongs over 39 µg/mL; to `O=C(COc1ccccc1Cl)NCCNC(=O)c1ccco1`, 47.3 µg/mL (≈ 147 µM); to `O=C(Nc1nc2cc3c(cc2s1)OCO3)C1CC1`, under 0.3 µg/mL.
For `O=C1CN(S(=O)(=O)c2ccccc2)CCN1`, the solubility (kinetic) is over 36 µg/mL.
On to `OC(C#CCCN1CCCCC1)(c1ccccc1)C1CCCCC1` (centres undefined), for which the solubility (kinetic) is 25.1 µg/mL (≈ 77.1 µM).
For `CN(CC(=O)NCc1ccccc1Cl)CC(=O)Nc1cccc(F)c1` the value was over 54.6 µg/mL.
Regarding `CCC1(C)Cc2ccccc2-c2nc(NCCCO)n(C)c(=O)c21` (centres undefined), the solubility (kinetic) was over 49.1 µg/mL.
Compound `Cc1ccc2nc3c(c(Nc4ccccc4)c2c1)CCC3.Cl` returned a solubility (kinetic) of 35 µg/mL.
Take `O=Cc1ccc(C(=O)OCC(=O)NC(=O)Nc2ccccc2F)cc1`: the kinetic solubility turned out to be 28.9 µg/mL (≈ 83.9 µM).
In turn, `CCCCC(=O)N=c1sc2c(OC)ccc(OC)c2n1C` displayed a solubility (kinetic) of under 0.3 µg/mL.
For `Cc1cccc(N=C2NC(=O)C(CO)(CO)S2)c1` the value was 22.4 µg/mL (≈ 84.1 µM); for `Cc1ccc(OCCSc2nc3ncnc(N)c3[nH]2)cc1`, 3.8 µg/mL (≈ 12.6 µM); for `O=S1(=O)CC2NC(=S)N(c3cccc(Br)c3)C2C1` (centres undefined), over 52.1 µg/mL.
In the case of `N#Cc1nc(-c2cccc(Cl)c2)oc1N1CCC(C(N)=O)CC1`, the kinetic solubility was determined as 1.8 µg/mL (≈ 5.44 µM).
For `CCc1ccc(S(=O)(=O)NCc2cccs2)cc1` the value was 35.6 µg/mL (≈ 127 µM).
To `CC(CN1CCOCC1)OC(=O)c1ccccc1.Cl` (centres undefined) belongs over 42.9 µg/mL.
`CCOC(=O)C1CCN(C/C=C/c2ccccc2)CC1`: the kinetic solubility came out at 27.2 µg/mL (≈ 99.5 µM).
`CC1CN(C(=S)Nc2ccc(S(N)(=O)=O)cc2)CC(C)O1` (centres undefined) gave a kinetic solubility of over 49.4 µg/mL.
For `COC(=O)c1c(O)cc(=O)n2c1CCCCC2` the value was 33.3 µg/mL (≈ 140 µM); for `Cc1cc(C)n2nc(SCCC(=O)NCc3ccccc3)nc2n1`, over 51.2 µg/mL.
Consider `Cc1cccc(-c2nnc(SCC(=O)Nc3cc(C)on3)n2C)c1`, for which the solubility (kinetic) is over 51.5 µg/mL.
`Cc1ccc(NS(=O)(=O)c2csc(C(N)=O)c2)cc1C`: the kinetic solubility was determined as 18.9 µg/mL (≈ 60.9 µM).
In turn, `Cc1ccc(-c2nc(-c3ccncc3)no2)c(C)c1` registered a solubility (kinetic) of 0.5 µg/mL (≈ 1.99 µM).
For the compound `N/C(=N\O)c1cccc(CS(=O)(=O)c2ccccn2)c1`, the solubility (kinetic) amounted to 37 µg/mL (≈ 127 µM).
On to `O=C(Nc1cccnc1Cl)c1cc(-c2ccc(O)cc2)on1`, for which the solubility (kinetic) was under 0.2 µg/mL.
Turning to `Cc1ccc(C(=O)OCC(=O)c2ccc[nH]2)s1`, the kinetic solubility is over 37.4 µg/mL.
On to `Cn1c(NC2CCCCC2)cc(=O)n(C)c1=O`, for which the solubility (kinetic) is over 35.6 µg/mL.
Consider `O=c1c2c([nH]c3ccccc13)CCCCC2`, for which the kinetic solubility is over 32 µg/mL.
`Cc1ccc(N2C(=O)N(CC(=O)Nc3ccc([N+](=O)[O-])cc3)C(=O)C2C)cc1` (centres undefined) had a solubility (kinetic) of 6 µg/mL (≈ 15.7 µM).
`COc1ccc(CCNC(=O)COc2ccc(C)nc2[N+](=O)[O-])cc1` registered a solubility (kinetic) of over 51.8 µg/mL.
`O=C(c1cc2cc(Cl)ccc2o1)N1CCCC1` had a kinetic solubility of 29.6 µg/mL (≈ 119 µM).
As to `Cc1nc2ccc(-c3nc4ccc(N)cc4[nH]3)cc2[nH]1`, the kinetic solubility is 39.4 µg/mL (≈ 150 µM).
For `O=C(O)C1CCCN(S(=O)(=O)c2ccc(Br)s2)C1` (centres undefined) the value was 52.1 µg/mL (≈ 147 µM).
Compound `O=C(CCN1CCN(c2ccccc2F)CC1)Nc1ccccc1Cl` had a solubility (kinetic) of over 54.3 µg/mL.
Turning to `Cc1ccc(C)c(S(=O)(=O)c2c[nH]c(=S)[nH]c2=O)c1`, the solubility (kinetic) stood at 36.6 µg/mL (≈ 123 µM).
As to `COC(CNc1nc(SC)nc2sc3c(c12)CCN(C)C3)OC`, the solubility (kinetic) was 52.4 µg/mL (≈ 148 µM).
`COc1ccc(CC(=O)NC(=S)Nc2cccc(C)c2)cc1`: the kinetic solubility is 4 µg/mL (≈ 12.7 µM).
Regarding `CCC(=O)NCc1c(C)c(C)n(Cc2ccccc2)c1-n1cccc1`, the kinetic solubility stood at 4.6 µg/mL (≈ 13.7 µM).
`O=C(Nc1ccccc1)Nc1ccc(NC(=O)c2ccccc2O)cc1` showed a solubility (kinetic) of under 0.2 µg/mL.
`COc1ccc(NS(=O)(=O)c2ccc(N3CCCC3)c(NC(=S)Nc3cccc(C)c3C)c2)cc1`: the kinetic solubility was found to be 7.6 µg/mL (≈ 14.9 µM).
To `CC(C)S(=O)(=O)C/C(N)=N/OS(=O)(=O)c1ccc(Cl)cc1` belongs 42.5 µg/mL (≈ 120 µM); to `CC(C)CCNC(=O)C(=O)NCc1ccccc1`, 2.6 µg/mL (≈ 10.5 µM); to `NC(=O)COc1ccc(C(=O)/C=C2/C(=O)Nc3ccccc32)cc1`, 6.4 µg/mL (≈ 19.9 µM).
Regarding `COc1ccc2[nH]cc(CCNC(=O)c3ccc4ccccc4n3)c2c1`, the kinetic solubility amounted to 1.6 µg/mL (≈ 4.63 µM).
To `CN(C)S(=O)(=O)c1cccc(NC(=O)COC(=O)[C@H](Cc2ccccc2)NC(=O)c2ccco2)c1` belongs 24.2 µg/mL (≈ 48.4 µM); to `OCCN=C1CCCc2c1[nH]c1ccc(Cl)cc21`, 12.3 µg/mL (≈ 46.8 µM); to `Cc1cc(C(=O)OCC(=O)Nc2ccccc2)c(C)o1`, 20 µg/mL (≈ 73.2 µM).
In the case of `O=C(Nc1ccc(OCc2ccccc2)cc1)Nc1cccnc1`, the kinetic solubility stood at 1.2 µg/mL (≈ 3.76 µM).
To `O=[N+]([O-])c1ccc(Cl)c(C[n+]2cccc3ccccc32)c1.[Br-]` belongs 56.9 µg/mL.
`COc1ccc(N2CCN(c3ccc([N+](=O)[O-])nc3)CC2)cc1` registered a kinetic solubility of 3 µg/mL (≈ 9.54 µM).
To `COc1cccc(C2=NOC(C(=O)Nc3cc(C)on3)C2)c1OC` (centres undefined) belongs 46.5 µg/mL (≈ 140 µM); to `Cc1nc(SCC(=O)N2CC(=O)Nc3ccccc32)nc(C)c1C`, 10.8 µg/mL (≈ 31.5 µM); to `CCC(=O)NCCc1nc2cc(NC(=O)c3ccco3)ccc2n1C`, 48 µg/mL (≈ 141 µM).
Turning to `Cc1ccc(OCCN2CCOCC2)cc1C`, the solubility (kinetic) is over 35.3 µg/mL.
Consider `O=S(=O)(NCCOc1ccccc1F)c1ccc(Cl)cc1F`, for which the solubility (kinetic) is 5.7 µg/mL (≈ 16.4 µM).
In turn, `CN1C2CCC1CC(NC(=O)CSc1ccc(Cl)cc1)C2` (centres undefined) gave a solubility (kinetic) of over 48.7 µg/mL.
`COC(=O)[C@@H](C)NC(=O)c1ccc2oc(CCc3ccccc3)nc2c1` came in with a solubility (kinetic) of 41 µg/mL (≈ 116 µM).
`COCCCNc1nc(N)c([N+](=O)[O-])c(Nc2ccccc2OC)n1` returned a solubility (kinetic) of 1 µg/mL (≈ 2.87 µM).
`CNC(=O)C(=O)Nc1c(O)c2ccccc2[nH]c1=O` gave a kinetic solubility of over 39.2 µg/mL.
For the compound `O=C(O)c1cncc(SCc2ccccc2)n1`, the kinetic solubility turned out to be 34.5 µg/mL (≈ 140 µM).
`Clc1ccc(-c2csc(Nc3cccnc3)n2)cc1` gave a kinetic solubility of 0.3 µg/mL (≈ 1.04 µM).
Regarding `O=C(Nc1nc2c(F)c(F)c(F)cc2s1)c1ccco1`, the solubility (kinetic) is under 0.3 µg/mL.
`CSCCCNC(=S)Nc1ccc(N2CCOCC2)cc1` had a kinetic solubility of over 48.8 µg/mL.
For `Cn1c(=O)oc2cc(S(=O)(=O)NCc3cccnc3)ccc21` the value was 30.5 µg/mL (≈ 95.5 µM); for `Cc1cc(C)c(NC(=O)CSc2cccc[n+]2[O-])c(C)c1`, over 45.4 µg/mL.
For `CCOC(=O)N1CCN(CC(=O)c2ccc(O)c(C)c2O)CC1` the value was 40.7 µg/mL (≈ 126 µM); for `N#CC1=C(N)Oc2nc[nH]c(=O)c2C1c1cccs1` (centres undefined), over 40.8 µg/mL.
`N/C(=N\OC(=O)/C=C/c1ccccc1Cl)c1cccnc1`: the kinetic solubility turned out to be 14.9 µg/mL (≈ 49.4 µM).
In turn, `O=C(OCC(=O)N1CCOCC1)c1cccc(F)c1` yielded a solubility (kinetic) of over 40.1 µg/mL.
For `Cc1ccc(Cl)cc1NC(=O)CON=C(N)c1ccccc1` the value was 32.4 µg/mL (≈ 102 µM); for `CN(C)c1cccc(C(=O)OCC(=O)c2ccc[nH]2)c1`, over 40.8 µg/mL.
On to `Nc1ccccc1SCC(=O)Nc1cccc2ccccc12`, for which the solubility (kinetic) came out at 32.6 µg/mL (≈ 106 µM).
Compound `CCn1cnc2cc(NCc3cccs3)ccc21` came in with a kinetic solubility of over 38.6 µg/mL.
As for `Cc1cc(C(=O)Nc2ccccc2N2CCOCC2)c(C)o1`, the kinetic solubility was 10.3 µg/mL (≈ 34.3 µM).
Regarding `O=[N+]([O-])c1cc(F)c(N2CCCCC2)cc1Br`, the kinetic solubility came to 0.3 µg/mL (≈ 0.99 µM).
In turn, `Cc1ccc(NC(=O)C(=O)NCCc2c[nH]c3ccccc23)cc1C` registered a solubility (kinetic) of under 0.2 µg/mL.
With `O=C(CSCc1c(F)cccc1Cl)NCCSCc1ccco1`, the kinetic solubility was 36.8 µg/mL (≈ 98.4 µM).
Regarding `CCn1cc(C(=O)NCc2ccccc2)c2ccccc21`, the solubility (kinetic) is 8 µg/mL (≈ 28.7 µM).
Compound `COC(=O)c1c(C(=O)OC)c2ccccn2c1C(=O)c1ccccc1` yielded a kinetic solubility of 6.2 µg/mL (≈ 18.4 µM).
For the compound `Cc1[nH]c2ccccc2c1C(=O)CSc1ccccn1`, the solubility (kinetic) is 1.4 µg/mL (≈ 4.96 µM).
`O=C(/C=C/c1cccc(F)c1)OCC(=O)N1CCCC1` displayed a kinetic solubility of over 41.6 µg/mL.
`O=C1Nc2ccc([N+](=O)[O-])cc2OC1CCN1CCOCC1` (centres undefined) had a solubility (kinetic) of over 46.1 µg/mL.
Turning to `O=C(CNC1CCCCC1)Nc1ccc(Cl)cc1`, the solubility (kinetic) came out at 38 µg/mL (≈ 142 µM).
Consider `C=CCn1c(SCC(C)=O)nc2sc3c(c2c1=O)CCC3`, for which the solubility (kinetic) was 4.6 µg/mL (≈ 14.4 µM).
In turn, `Cc1cccc(C)c1NC(=O)COC(=O)c1cc[n+]([O-])cc1` displayed a solubility (kinetic) of over 45 µg/mL.
For `COc1ccc(NS(=O)(=O)c2ccc(C(=O)N3CCCCCC3)cc2)cc1` the value was over 58.3 µg/mL; for `O=c1[nH]c2ccccc2nc1-c1c[nH]c2ccccc12`, 0.2 µg/mL (≈ 0.765 µM); for `Cc1ccc(CN(C)C2CCN(C)CC2)cc1`, 31.3 µg/mL (≈ 135 µM).
For `COc1ccc(Cc2c(O)nc(SCC(=O)N3CCOCC3)[nH]c2=O)cc1` the value was over 58.7 µg/mL.
As to `CCc1ccccc1NC(=O)CC(=O)Nc1ccccc1CC`, the solubility (kinetic) is over 46.6 µg/mL.
For `CN(C)C(CNC(=O)CSC(=S)N1CCCC1)c1ccccc1` (centres undefined) the value was over 52.7 µg/mL.
Regarding `CC1(CCBr)C(=O)N(c2ccccc2)c2ccccc21` (centres undefined), the kinetic solubility was found to be 22.9 µg/mL (≈ 69.3 µM).
For `Cn1c(-c2ccccn2)[n+](C)c2ccccc21.[Cl-]` the value was over 39 µg/mL; for `CCC(=O)N(Cc1cc(=O)[nH]c2ccccc12)c1ccccc1`, over 46 µg/mL.
As to `CCOC(=O)N1CCC(NC(=O)CCCC(=O)O)CC1`, the solubility (kinetic) was over 42.9 µg/mL.
To `Cc1ccc2oc(C(=O)NCc3ncc(C)[nH]3)c(C)c2c1` belongs 38.7 µg/mL (≈ 137 µM); to `CC1C(=O)Nc2ccccc2N1C(=O)c1ccc(F)cc1` (centres undefined), over 42.6 µg/mL.
Compound `COc1ccc(C(=O)Nc2nc3ccccc3[nH]2)cc1` yielded a solubility (kinetic) of 4.1 µg/mL (≈ 15.3 µM).
To `CC(=O)C1=C(O)C(=O)N(c2ccc(O)cc2)C1c1ccc(C)cc1` (centres undefined) belongs over 48.5 µg/mL; to `O=C(c1ccc(Cl)cc1)N1CCn2c1nc1ccccc12`, 1.1 µg/mL (≈ 3.69 µM).

One may read the kinetic solubility as solubility judged after dilution from a stock solution rather than from solid.
